US10358435B2, “Triazolyl pyrimidinone compounds as PDE2 inhibitors” (Merck Sharp & Dohme Corp., priority 2015, dated 2019)

Biological target: human PDE2A1 (Homo sapiens (Human), UniProt O00408)
Assay: IMAP fluorescence polarization assay, human PDE2A1 (PDE selectivity panel)
Format: biochemical
Conditions: FAM cAMP 50 nM with 1000 nM cGMP
Experimental: The activity of the compounds in accordance with the present invention as PDE2 inhibitors may be readily determined using a fluorescence polarization (FP) methodology (Huang, W., et al., J. Biomol Screen, 2002, 7: 215).
Dose-inhibition profiles for each compound were characterized by fitting the mP data to a four-parameter equation given below.
Selectivity for PDE2, as compared to other PDE families, was assessed using the IMAP® technology. Human PDE10A2 enzyme was prepared from cytosolic fractions of transiently transfected HEK cells. All other PDE's were GST Tag human enzyme expressed in insect cells and were obtained from BPS Bioscience (San Diego, Calif.): PDE1A (Cat#60010), human PDE2A1 (Cat#60020), PDE3A (Cat#60030), PDE4A1A (Cat#60040), PDE5A1 (Cat#60050), PDE6C (Cat#60060), PDE7A (Cat#60070), PDE8A1 (Cat#60080), PDE9A2 (Cat#60090), PDE11A4 (Cat#60110).
Assays for PDE 1 through 11 were performed in parallel at room temperature in 384-well microtiter plates with an incubation volume of 20.2 μL. Solutions of test compounds were prepared in DMSO and serially diluted with DMSO to yield 30 μL of each of ten solutions differing by 3-fold in concentration, at 32 serial dilutions per plate. […] A Labcyte POD 810 (Labcyte, Sunnyvale, Calif.) was used to dispense 200 nL from each well of the titration plate to make eleven copies of the assay plate for each titration, one copy for each PDE enzyme. A solution of each enzyme (dilution from aliquots, sufficient to produce 20% substrate conversion) and a separate solution of FAM-labeled cAMP or FAM-labeled cGMP from Molecular Devices (Sunnyvale, Calif., product # R7506 or cGMP#R7508), at a final concentration of 50 nM were made in the assay buffer (10 mM Tris HCl, pH 7.2, 10 mM MgCl2, 0.05% NaN3 0.01% Tween-20, and 1 mM DTT). Note that the substrate for PDE2 is 50 nM FAM cAMP containing 1000 nM of cGMP. The enzyme and the substrate were then added to the assay plates in two consecutive additions of 10 μL and then shaken to mix. The reaction was allowed to proceed at room temperature for 60 minutes. A binding solution was then made from the kit components, comprised of 80% Solution A, 20% Solution B and binding reagent at a volume of 1/600 the total binding solution. The enzymatic reaction was stopped by addition of 60 μL of the binding solution to each well of the assay plate. The plates were sealed and shaken for 10 seconds. The plates were incubated at room temperature for one hour, then the parallel and perpendicular fluorescence was measured using a Tecan Genios Pro plate reader (Tecan, Switzerland). The apparent inhibition constants for the compounds against all 11 PDE's was determined from the parallel and perpendicular fluorescent readings as described for PDE10 FP assay using the following apparent KM values for each enzyme and substrate combination: PDE1A (FAM cGMP) 70 nM, human PDE2A1 (FAM cAMP) 10,000 nM, PDE3A (FAM cAMP) 50 nM, PDE4A1A (FAM cAMP) 1500 nM, PDE5A1 (FAM cGMP) 400 nM, PDE6C (FAM cGMP) 700 nM, PDE7A (FAM cAMP) 150 nM, PDE8A1 (FAM cAMP) 50 nM, PDE9A2 (FAM cGMP) 60 nM, PDE10A2 (FAM cAMP) 150 nM, PDE11A4 (FAM cAMP) 1000 nM. The intrinsic PDE2 inhibitory activity of a compound which may be used in accordance with the present invention may be determined by these assays.

human PDE2A1, sequence (O00408 other isoform, or with tags, fused parts or gaps): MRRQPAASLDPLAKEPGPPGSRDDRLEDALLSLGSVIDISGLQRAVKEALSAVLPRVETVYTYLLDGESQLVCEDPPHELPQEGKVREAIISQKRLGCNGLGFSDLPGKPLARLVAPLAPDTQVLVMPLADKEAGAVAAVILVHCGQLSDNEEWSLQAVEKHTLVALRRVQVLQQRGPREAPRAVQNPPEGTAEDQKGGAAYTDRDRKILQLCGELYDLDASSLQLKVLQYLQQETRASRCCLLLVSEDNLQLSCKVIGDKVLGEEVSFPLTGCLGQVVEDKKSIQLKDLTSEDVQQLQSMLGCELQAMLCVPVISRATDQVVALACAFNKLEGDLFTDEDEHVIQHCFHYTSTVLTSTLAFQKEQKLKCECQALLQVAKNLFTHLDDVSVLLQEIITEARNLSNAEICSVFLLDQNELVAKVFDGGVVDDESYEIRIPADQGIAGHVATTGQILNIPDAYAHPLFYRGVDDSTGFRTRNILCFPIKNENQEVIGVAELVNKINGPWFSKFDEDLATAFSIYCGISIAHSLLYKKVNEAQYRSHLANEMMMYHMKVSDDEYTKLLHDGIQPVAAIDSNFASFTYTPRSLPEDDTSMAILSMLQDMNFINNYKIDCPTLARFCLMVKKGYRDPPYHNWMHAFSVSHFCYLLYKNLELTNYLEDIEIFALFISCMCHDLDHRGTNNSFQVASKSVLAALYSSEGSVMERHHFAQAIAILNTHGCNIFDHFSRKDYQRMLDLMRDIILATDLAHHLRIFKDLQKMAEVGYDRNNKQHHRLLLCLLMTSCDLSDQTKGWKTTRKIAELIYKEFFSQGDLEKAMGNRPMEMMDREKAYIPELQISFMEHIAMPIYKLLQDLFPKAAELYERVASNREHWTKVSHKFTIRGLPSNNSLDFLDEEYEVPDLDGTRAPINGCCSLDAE

Row | Compound | Ki [nM]
1 | Cc1nc(-c2nnc3n2CCCC3(C)c2ccc(C(F)(F)F)cc2)cc(=O)[nH]1 (single isomer, unassigned) [Example 72, (S)- or (R)-2-methyl-6-(8-methyl-8-(4-(trifluoromethyl)phenyl)-5,6,7,8-tetrahydro-[1,2,4]triazolo[4,3-a]pyridin-3-yl)pyrimidin-4(3H)-one] | 864
2 | Cc1nc(-c2nnn3c2CCC[C@]3(C)c2ccc(OC(F)(F)F)cc2)cc(=O)[nH]1 (single isomer, unassigned) [Example 76] | 182
3 | Cc1nc(-c2nnn3c2CCC[C@]3(C)c2ccc(OC(F)(F)F)cc2)cc(=O)[nH]1 (single isomer, unassigned) [Example 77] | 2800
4 | Cc1nc(-c2nnn3c2CCC[C@]3(C)c2ccc(C(F)(F)F)cc2C)cc(=O)[nH]1 (single isomer, unassigned) [Example 78] | 804
5 | Cc1nc(-c2nnc3n2CCC[C@]3(C)c2ccc(C(F)(F)F)cc2F)cc(=O)[nH]1 (single isomer, unassigned) [Example 80] | 2060
6 | Cc1nc(-n2ncc([C@H](C)c3ccc(C(F)(F)F)cc3Cl)n2)cc(=O)[nH]1 (single isomer, unassigned) [Example 82] | 221
7 | Cc1nc(-n2cnc([C@H](C)c3ccc(C(F)(F)F)cc3F)n2)cc(=O)[nH]1 (single isomer, unassigned) [Example 84] | 224
8 | Cc1nc(-n2cnc([C@H](C)c3ccc(C(F)(F)F)cc3F)n2)cc(=O)[nH]1 (single isomer, unassigned) [Example 85] | 1200
9 | Cc1nc(-c2nnn3c2CCC[C@]3(C)c2ccc(C(F)(F)F)cc2Cl)cc(=O)[nH]1 (single isomer, unassigned) [Example 88] | > 2960
10 | COc1ccc(Cc2nc(-c3nnn4c3CCC[C@]4(C)c3ccc(C(F)(F)F)cc3F)cc(=O)[nH]2)cc1 (single isomer, unassigned) [Example 90] | 1900
11 | COc1cccc(Cc2nc(-c3nnn4c3CCCC4(C)c3ccc(C(F)(F)F)cc3F)cc(=O)[nH]2)c1 (single isomer, unassigned) [Example 91, (S)- or (R)-6-(7-(2-Fluoro-4-(trifluoromethyl)phenyl)-7-methyl-4,5,6,7-tetrahydro-[1,2,3]triazolo[1,5-a]pyridin-3-yl)-2-(3-methoxy-benzyl)pyrimidin-4(3H)-one] | 0.56
12 | COc1cccc(Cc2nc(-c3nnn4c3CCCC4(C)c3ccc(C(F)(F)F)cc3F)cc(=O)[nH]2)c1 (single isomer, unassigned) [Example 92] | 728
13 | CCc1ccc([C@]2(C)CCCc3c(-c4cc(=O)[nH]c(C)n4)nnn32)c(F)c1 (single isomer, unassigned) [Example 96] | 430
14 | Cc1nc(-c2nnn3c2CCC3(C)c2ccc(C(F)(F)F)cc2F)cc(=O)[nH]1 (single isomer, unassigned) [Example 98, (S)- or (R)-6-(6-(2-Fluoro-4-(trifluoromethyl)phenyl)-6-methyl-5,6-dihydro-4H-pyrolo[1,2-c][1,2,3]triazol-3-yl)-2-methylpyrimidin-4(3H)-one] | 218
15 | Cc1nc(-c2nnc(C(C)(C)c3ccc(C(F)(F)F)cc3F)n2C)cc(=O)[nH]1 [Example 69, 6-(5-(2-(2-Fluoro-4-(trifluoromethyl)phenyl)propan-2-yl)-4-methyl-4H-1,2,4-triazol-3-yl)-2-methylpyrimidin-4(3H)-one] | 1130
16 | Cc1nc(-c2ncn(C(C)c3ccc(C(F)(F)F)cc3F)n2)cc(=O)[nH]1 (centres unmarked) [Example 86, 6-(1-(1-(2-Fluoro-4-(trifluoromethyl)phenyl)ethyl)-1H-1,2,4-triazol-3-yl)-2-methylpyrimidin-4(3H)-one] | 167

Further molecules by falling Ki, results first:

Row | Ki [nM] | Compound
17 | 99.6 | CCc1ccc(C(C)(C)n2cc(-c3cc(=O)[nH]c(C)n3)nn2)c(C)c1 [Example 33, 6-(1-(2-(4-ethyl-2-methylphenyl)propan-2-yl)-1H-1,2,3-triazol-4-yl)-2-methylpyrimidin-4(3H)-one]
18 | 73.2 | Cc1nc(-c2nnn3c2COCC3c2ccc(C(F)(F)F)cc2)cc(=O)[nH]1 (centres unmarked) [Example 53, 2-methyl-6-(7-(4-(trifluoromethyl)phenyl)-6,7-dihydro-4H-[1,2,3]triazolo[5,1-c][1,4]oxazin-3-yl)pyrimidin-4(3H)-one]
19 | 67 | Cc1nc(-c2nnn3c2CCCCC3(C)c2ccc(C(F)(F)F)cc2F)cc(=O)[nH]1 (single isomer, unassigned) [Example 93, (S)- or (R)-6-(8-(2-Fluoro-4-(triflouromethyl)phenyl)-8-methyl-5,6,7,8-tetrahydro-4H-[1,2,3]triazolo[1,5-a]azepin-3-yl)-2-methylpyrimidin-4(3H)-one]
20 | 56.3 | Cc1nc(-c2nnn3c2CCCCC3(C)c2ccc(C(F)(F)F)cc2F)cc(=O)[nH]1 (single isomer, unassigned) [Example 94, (S)- or (R)-6-(8-(2-Fluoro-4-(triflouromethyl)phenyl)-8-methyl-5,6,7,8-tetrahydro-4H-[1,2,3]triazolo[1,5-a]azepin-3-yl)-2-methylpyrimidin-4(3H)-one]
21 | 26.9 | Cc1nc(-c2nnc3n2CCCC3(C)c2ccc(C(F)(F)F)cc2)cc(=O)[nH]1 (single isomer, unassigned) [Example 73, (S)- or (R)-2-methyl-6-(8-methyl-8-(4-(trifluoromethyl)phenyl)-5,6,7,8-tetrahydro-[1,2,4]triazolo[4,3-a]pyridin-3-yl)pyrimidin-4(3H)-one]
22 | 8.9 | Cc1nc(-n2cc([C@H](C)c3ccc(C(F)(F)F)cc3Cl)nn2)cc(=O)[nH]1 (single isomer, unassigned) [Example 75]
23 | 8.3 | Cc1nc(-c2nnn3c2CCC[C@]3(C)c2ccc(C(F)(F)F)cc2C)cc(=O)[nH]1 (single isomer, unassigned) [Example 79]
24 | 5.4 | Cc1nc(-c2cn(C(C)(C)c3ccc(C(F)(F)F)cc3C)nn2)cc(=O)[nH]1 [Example 31, 2-methyl-6-(1-(2-(2-methyl-4-(trifluoromethyl)phenyl)propan-2-yl)-1H-1,2,3-triazol-4-yl) pyrimidin-4(3H)-one]
25 | 4.9 | Cc1nc(-c2cn(C(C)(C)c3ccc(C4CC4)cc3Cl)nn2)cc(=O)[nH]1 [Example 34, 6-(1-(2-(2-chloro-4-cyclopropylphenyl)propan-2-yl)-1H-1,2,3-triazol-4-yl)-2-methylpyrimdin-4(3H)-one]
26 | 4.2 | Cc1nc(-n2ncc([C@H](C)c3ccc(C(F)(F)F)cc3Cl)n2)cc(=O)[nH]1 (single isomer, unassigned) [Example 83]
27 | 1.8 | CCc1ccc([C@]2(C)CCCc3c(-c4cc(=O)[nH]c(C)n4)nnn32)c(F)c1 (single isomer, unassigned) [Example 95]
28 | 1.7 | Cc1nc(-c2cn(C(C)(C)c3ccc(C(F)(F)F)cc3Cl)nn2)cc(=O)[nH]1 [Example 30, 6-(1-(2-(2-chloro-4-(trifluoromethyl)phenyl)propan-2-yl)-1H-1,2,3-triazol-4-yl)-2-methylpyrimidin-4(3H)-one]
29 | 0.42 | Cc1nc(-n2cc([C@H](C)c3ccc(C(F)(F)F)cc3Cl)nn2)cc(=O)[nH]1 (single isomer, unassigned) [Example 74]
